# Source: US10787462B2, “Heterocyclic compound” (TAKEDA PHARMACEUTICAL COMPANY LIMITED, priority 2015, dated 2020)
# Biological target: T1, human RIPK1 (1-375) (Homo sapiens, UniProt Q13546)
# T1 construct: human RIPK1 (1-375) gene; GST; made in house; host or cells: Sf-9 insect cells
# T1 sequence (Q13546 1-375): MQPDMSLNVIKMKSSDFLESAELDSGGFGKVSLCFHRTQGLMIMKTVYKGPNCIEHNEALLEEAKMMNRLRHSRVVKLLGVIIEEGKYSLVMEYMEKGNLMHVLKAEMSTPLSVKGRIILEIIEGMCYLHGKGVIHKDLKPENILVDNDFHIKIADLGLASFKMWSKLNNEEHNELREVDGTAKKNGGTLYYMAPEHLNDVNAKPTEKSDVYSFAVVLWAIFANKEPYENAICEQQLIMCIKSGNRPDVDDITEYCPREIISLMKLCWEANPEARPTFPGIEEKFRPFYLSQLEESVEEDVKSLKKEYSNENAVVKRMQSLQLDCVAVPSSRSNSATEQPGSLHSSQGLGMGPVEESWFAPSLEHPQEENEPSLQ
# Test: Human RIPK1 enzyme inhibitory effect (ADP-Glo Kinase Assay)
# Assay type: biochemical
# Conditions: 10 μM test compound; well without enzyme = 100% inhibition; 10 µM
# Method: Experimental Example 1: Human RIPK1 Enzyme Inhibitory Effect
# Enzyme was prepared by transducing human RIPK1 (1-375) gene to Sf-9 insect cells, and purifying using GST affinity column, and enzyme activity evaluation was performed using the enzyme. The enzyme was used after preservation at −70° C. The RIPK1 enzyme inhibitory activity of the test compound was measured using ADP-Glo™ Kinase Assay (Promega) according the following experiment methods. The test compound diluted with assay buffer (25 mM HEPES (pH 7.5), 10 mM MgCl2, 0.01% Tween-20, 2 mM DTT) was added to 384 well plate by each 2 μL. Next, RIPK1 enzyme solution diluted with the assay buffer was added thereto by each 2 μL, and the mixture was incubated at room temperature for 20 min. After the incubation, 0.6 mM ATP solution was added thereto by each 2 μL to initiate an enzyme reaction. The mixture was incubated at room temperature for 120 min, and ADP-Glo solution prepared according to Promega protocol was added to the 384 well plate by each 3 μL, and the reaction was performed at room temperature for 40 min. Then, Kinase-Detection solution was added to the 384 well plate by each 6 μL, and the reaction was performed at room temperature for 40 min. After the reaction, the luminescence intensity was measured by plate reader Envision (PerkinElmer).
row,human RIPK1 enzyme inhibitory effect at 10 μM (% inhibition) [%],Compound
1,100,"CN1C(=O)C(N2CCc3c(nn(Cc4ccccc4)c3Cl)C2=O)CCc2ncccc21 (stereo not drawn) [Example 66, 7-(2-benzyl-3-chloro-7-oxo-2,4,5,7-tetrahydro-6H-pyrazolo[3,4-c]pyridin-6-yl)-5-methyl-5,7,8,9-tetrahydro-6H-pyrido[3,2-b]azepin-6-one (optical isomer)]"
2,100,"CN1C(=O)C(N2CCc3c(nn(Cc4ccccc4F)c3Cl)C2=O)CCc2c1cnn2C (stereo not drawn) [Example 131, 6-(3-chloro-2-(2-fluorobenzyl)-7-oxo-2,4,5,7-tetrahydro-6H-pyrazolo[3,4-c]pyridin-6-yl)-1,4-dimethyl-4,6,7,8-tetrahydropyrazolo[4,3-b]azepin-5(1H)-one]"
3,101,"CN1C(=O)C(N2CCc3c(nn(Cc4ccccc4)c3Cl)C2=O)CCc2ccncc21 (stereo not drawn) [Example 95, 3-(2-benzyl-3-chloro-7-oxo-2,4,5,7-tetrahydro-6H-pyrazolo[3,4-c]pyridin-6-yl)-1-methyl-1,3,4,5-tetrahydro-2H-pyrido[3,4-b]azepin-2-one]"
4,101,"CNC(=O)c1ccc2c(c1)CCC(N1CCc3c(nn(Cc4ccccc4)c3Cl)C1=O)C(=O)N2C (stereo not drawn) [Example 136, 3-(2-benzyl-3-chloro-7-oxo-2,4,5,7-tetrahydro-6H-pyrazolo[3,4-c]pyridin-6-yl)-N,1-dimethyl-2-oxo-2,3,4,5-tetrahydro-1H-1-benzazepine-7-carboxamide]"
5,100,"CN1C(=O)C(N2CCc3c(nn(Cc4ccccc4)c3Cl)C2=O)CCc2cccnc21 (stereo not drawn) [Example 91, 7-(2-benzyl-3-chloro-7-oxo-2,4,5,7-tetrahydro-6H-pyrazolo[3,4-c]pyridin-6-yl)-9-methyl-5,6,7,9-tetrahydro-8H-pyrido[2,3-b]azepin-8-one]"

# Same assay, conditions: read-out: human RIPK1 enzyme inhibitory effect at 10 μM (% inhibition), 10 μM test compound; well without enzyme = 100% inhibition
row,Compound,inhibition at 10 µM [%]
1,"CN1C(=O)[C@@H](N2CCc3c(nn(Cc4cnccn4)c3Cl)C2=O)COc2cc(F)ccc21 [Example 75, (3S)-3-(3-chloro-7-oxo-2-(pyrazin-2-ylmethyl)-2,4,5,7-tetrahydro-6H-pyrazolo[3,4-c]pyridin-6-yl)-8-fluoro-5-methyl-2,3-dihydro-1,5-benzoxazepin-4(5H)-one]",101
2,"CN1C(=O)[C@@H](N2CCc3cn(CC4CC(F)(F)C4)nc3C2=O)COc2ccccc21 [Example 33, (3S)-3-(2-((3,3-difluorocyclobutyl)methyl)-7-oxo-2,4,5,7-tetrahydro-6H-pyrazolo[3,4-c]pyridin-6-yl)-5-methyl-2,3-dihydro-1,5-benzoxazepin-4(5H)-one]",95
3,"CN1C(=O)[C@@H](N2CCc3c(nn(Cc4cnccn4)c3Cl)C2=O)COc2ccc(F)cc21 [Example 143, (3S)-3-(3-chloro-7-oxo-2-(pyrazin-2-ylmethyl)-2,4,5,7-tetrahydro-6H-pyrazolo[3,4-c]pyridin-6-yl)-7-fluoro-5-methyl-2,3-dihydro-1,5-benzoxazepin-4(5H)-one]",100
4,"CN1C(=O)[C@@H](N2CCc3cn(Cc4cccc(C#N)c4)nc3C2=O)COc2ccccc21 [Example 29, 3-((6-((3S)-5-methyl-4-oxo-2,3,4,5-tetrahydro-1,5-benzoxazepin-3-yl)-7-oxo-4,5,6,7-tetrahydro-2H-pyrazolo[3,4-c]pyridin-2-yl)methyl)benzonitrile]",99
5,"CN1C(=O)[C@@H](N2CCc3cn(Cc4ccc(F)cc4)nc3C2=O)COc2ccccc21 [Example 157, (3S)-3-(2-(4-fluorobenzyl)-7-oxo-2,4,5,7-tetrahydro-6H-pyrazolo[3,4-c]pyridin-6-yl)-5-methyl-2,3-dihydro-1,5-benzoxazepin-4(5H)-one]",95
6,"CN1C(=O)[C@@H](N2CCc3cn(Cc4c(F)cccc4F)nc3C2=O)COc2cc(C#N)ccc21 [Example 45, (3S)-3-(2-(2,6-difluorobenzyl)-7-oxo-2,4,5,7-tetrahydro-6H-pyrazolo[3,4-c]pyridin-6-yl)-5-methyl-4-oxo-2,3,4,5-tetrahydro-1,5-benzoxazepine-8-carbonitrile]",101
7,"CN1C(=O)[C@@H](N2CCc3c(nn(Cc4cnccn4)c3Cl)C2=O)COc2cc(Cl)ccc21 [Example 146, (3S)-8-chloro-3-(3-chloro-7-oxo-2-(pyrazin-2-ylmethyl)-2,4,5,7-tetrahydro-6H-pyrazolo[3,4-c]pyridin-6-yl)-5-methyl-2,3-dihydro-1,5-benzoxazepin-4(5H)-one]",101
8,"CN1C(=O)[C@@H](N2CCc3ccc(Cc4ccccc4)nc3C2=O)COc2ccccc21 [Example 17, (3S)-3-(2-benzyl-8-oxo-5,8-dihydro-1,7-naphthyridin-7(6H)-yl)-5-methyl-2,3-dihydro-1,5-benzoxazepin-4(5H)-one]",97
9,"CN1C(=O)[C@@H](N2CCc3c(nn(Cc4cnccn4)c3Cl)C2=O)COc2ccccc21 [Example 80, (3S)-3-(3-chloro-7-oxo-2-(pyrazin-2-ylmethyl)-2,4,5,7-tetrahydro-6H-pyrazolo[3,4-c]pyridin-6-yl)-5-methyl-2,3-dihydro-1,5-benzoxazepin-4(5H)-one]",101
10,"CN1C(=O)[C@@H](N2CCc3cn(CC4CCOC4)nc3C2=O)COc2ccccc21 (stereo partly drawn) [Example 171, (3S)-5-methyl-3-(7-oxo-2-(tetrahydrofuran-3-ylmethyl)-2,4,5,7-tetrahydro-6H-pyrazolo[3,4-c]pyridin-6-yl)-2,3-dihydro-1,5-benzoxazepin-4(5H)-one]",88
11,"CN1C(=O)[C@@H](N2CCc3cn(Cc4ccccc4)nc3C2=O)COc2ccc(C(N)=O)cc21 [Example 72, (3S)-3-(2-benzyl-7-oxo-2,4,5,7-tetrahydro-6H-pyrazolo[3,4-c]pyridin-6-yl)-5-methyl-4-oxo-2,3,4,5-tetrahydro-1,5-benzoxazepine-7-carboxamide]",99
12,"Cc1c2c(nn1Cc1ccccc1F)C(=O)N([C@H]1COc3cc(Br)ccc3N(C)C1=O)CC2 [Example 109, (3S)-8-bromo-3-(2-(2-fluorobenzyl)-3-methyl-7-oxo-2,4,5,7-tetrahydro-6H-pyrazolo[3,4-c]pyridin-6-yl)-5-methyl-2,3-dihydro-1,5-benzoxazepin-4(5H)-one]",100
13,"CN1C(=O)[C@@H](N2CCc3cn(Cc4c(F)cccc4F)nc3C2=O)COc2ccccc21 [Example 24, (3S)-3-(2-(2,6-difluorobenzyl)-7-oxo-2,4,5,7-tetrahydro-6H-pyrazolo[3,4-]pyridin-6-yl)-5-methyl-2,3-dihydro-1,5-benzoxazepin-4(5H)-one]",101
14,"CN1C(=O)[C@@H](N2CCn3cc(Cc4ccccc4)nc3C2=O)COc2ccccc21 [Example 7, (3S)-3-(2-benzyl-8-oxo-5,6-dihydroimidazo[1,2-a]pyrazin-7(8H)-yl)-5-methyl-2,3-dihydro-1,5-benzoxazepin-4(5H)-one]",91
15,"CN1C(=O)[C@@H](N2CCc3cn(CC4CC4)nc3C2=O)COc2ccccc21 [Example 27, (3S)-3-(2-(cyclopropylmethyl)-7-oxo-2,4,5,7-hydro-6H-pyrazolo[3,4-c]pyridin-6-yl)-5-methyl-2,3-dihydro-1,5-benzoxazepin-4(5H)-one]",93

# Further lines, results first:
row,inhibition at 10 µM [%],Compound
1,98,"CN1C(=O)[C@@H](N2CCc3c(nn(Cc4ccccc4)c3Cl)C2=O)COc2cc(C(=O)NC3COC3)ccc21 [Example 118, (3S)-3-(2-benzyl-3-chloro-7-oxo-2,4,5,7-tetrahydro-6H-pyrazolo[3,4-c]pyridin-6-yl)-5-methyl-N-(oxetan-3-yl)-4-oxo-2,3,4,5-tetrahydro-1,5-benzoxazepine-8-carboxamide]"
2,98,"CN1C(=O)[C@@H](N2CCc3c(nn(Cc4ccccc4)c3Br)C2=O)COc2ccccc21 [Example 10, (3S)-3-(2-benzyl-3-bromo-7-oxo-2,4,5,7-tetrahydro-6H-pyrazolo[3,4-c]pyridin-6-yl)-5-methyl-2,3-dihydro-1,5-benzoxazepin-4(5H)-one]"
3,100,"CN1C(=O)[C@@H](N2CCc3c(nn(Cc4ccccc4)c3Cl)C2=O)COc2cc(-c3cnn(C)c3)ccc21 [Example 107, (3S)-3-(2-benzyl-3-chloro-7-oxo-2,4,5,7-tetrahydro-6H-pyrazolo[3,4-c]pyridin-6-yl)-5-methyl-8-(1-methyl-1H-pyrazol-4-yl)-2,3-dihydro-1,5-benzoxazepin-4(5H)-one]"
4,92,"N#Cc1ccc2c(c1)OC[C@H](N1CCc3c(nn(Cc4ccccc4)c3Cl)C1=O)C(=O)N2 [Example 83, (3S)-3-(2-benzyl-3-chloro-7-oxo-2,4,5,7-tetrahydro-6H-pyrazolo[3,4-c]pyridin-6-yl)-4-oxo-2,3,4,5-tetrahydro-1,5-benzoxazepine-8-carbonitrile]"
